Measured values published in patent publication US11033506B2, “External skin preparation comprising a core-shell structure” (SEKISUI CHEMICAL CO., LTD., priority 2017, dated 2021).

Assay: Octanol/water partition coefficient
Type: physicochemical
Details: Log10 (octanol phase/aqueous phase), aqueous buffer solution of pH 7
From the text: Specifically, the octanol/water partition coefficient can be determined by calculation using an equation: Octanol/water partition coefficient=Log10 (concentration in an octanol phase/concentration in an aqueous phase).

O=C1CCc2ccc(OCCCCN3CCN(c4cccc(Cl)c4Cl)CC3)cc2N1 [aripiprazole]
octanol/water partition coefficient: 4.5
logD (octanol/aqueous buffer solution (pH 7)): 4.5

O=C(O)c1cc(/N=N/c2ccc(S(=O)(=O)Nc3ccccn3)cc2)ccc1O [sulfasalazine]
octanol/water partition coefficient: 2.3
